From patent publication US7138408B2, “HIV integrase inhibitors, pharmaceutical compositions and methods for their use” (priority 2003, dated 2006)

The compounds below were run against T1, HIV-1 integrase (SF1) (Human immunodeficiency virus type 1 group M subtype B, UniProt P04585, C1203S/C1427S/F1286D/F1332K/W1278D) (assay: Integrase strand-transfer scintillation proximity assay).
T1 construct: 6-histidine tag with thrombin cleavage site (N, cleaved yes); made in house; host or cells: E. coli BL21 (DE3)
Assay type: biochemical
Description: Oligonucleotides: Oligonucleotide #1-5′-(biotin)[…]-3′ (SEQ ID NO: 1) and oligonucleotide #2-5′-[…]-3′ (SEQ ID NO: 2), were synthesized by TriLink BioTechnologies, Inc. (San Diego, Calif.). The annealed product represents preprocessed viral ds-DNA derived from the LTR U5 sequence of the viral genome. A ds-DNA control to test for non-specific interactions was made using a 3′ di-deoxy derivative of oligonucleotide #1 annealed to oligonucleotide #2. The CA overhang at the 5′ end of the non-biotinylated strand of the ds-DNA was created artificially by using a complimentary DNA oligonucleotide shortened by 2 base pairs. This configuration eliminates the requisite 3′ processing step of the integrase enzyme prior to the strand-transfer mechanism.
Host ds-DNA was prepared as an unlabeled and [^3H]-thymidine labeled product from annealed oligonucleotide #3-5-[…]-3′ (SEQ ID NO: 3), and oligonucleotide #4-5′-[…]-3′ (SEQ ID NO: 4), both synthesized by TriLink BioTechnologies, Inc. (San Diego, Calif.). The annealed product had overhanging 3′ ends of poly(dA). Host DNA was custom radiolabeled by PerkinElmer Life Sciences Inc. (Boston, Mass.) using an enzymatic method with a 12/1 ratio of [methyl-^3H]dTTP/cold ds-DNA to yield 5′-blunt end ds-DNA with a specific activity of>900 Ci/mmol. The radiolabeled product was purified using a NENSORB cartridge and stored in stabilized aqueous solution (PerkinElmer). The final radiolabeled product had six [^3H]-thymidine nucleotides at both 5′ ends of the host ds-DNA.
Reagents: Streptavidin-coated polyvinyltoluene (PVT) SPA beads were purchased from Amersham Pharmacia (Piscataway, N.J.). Cesium chloride was purchased from Shelton Scientific, Inc. (Shelton, Conn.). White polystyrene, flat bottom, non-binding surface 384-well plates were purchased from Corning. All other buffer components were purchased from Sigma (St. Louis, Mo.) unless otherwise indicated.
Enzyme Construction: Full-length HIV-1 integrase (SF1) sequence (amino acids 1–288) (SEQ ID NO: 5) was constructed in a pET 15b vector (Novagen, Madison, Wis.) with mutations outlined by Chen et al. (Chen, C-H. J. et al., PNAS 97: 8233–8238 (2000)) that facilitate solubility of the enzyme and decrease oxidation. The vector contained a T7 promoter, a 6-histidine tag at the amino terminus, and a thrombin cleavage site. Mutations C56S, W131D, F139D, F185K, and C280S were introduced using a QuickChange kit (Stratagene, San Diego, Calif.). The construct was confirmed through DNA sequencing.
Enzyme Purification: The penta-mutant was expressed in E. coli BL21 (DE3) cells and induced with 1 mM isopropyl-1 thio-β-D-galactopyranoside (IPTG) when cells reached an optical density between 0.8–1.0 at 600 nm. Cells were lysed in 20 mM HEPES (pH 7.5), 1.5 M NaCl, 5 mM imidazole, and 2 mM 2-mercaptoethanol. The enzyme was purified following standard methods for histidine tagged proteins (Jenkins, T. M. et al., Journal of Biological Chemistry 271: 7712–7718 (1996)). Specifically, cell lysate was passed over a Ni-Nta column (Qiagen, Chatsworth, Calif.) with the 6-His tagged integrase protein eluted by adding 250 mM imidazole. A G-25 Sepharose® column (Amersham Pharmacia, Piscataway, N.J.) was used to exchange the buffer prior to thrombin cleavage of the integrase protein and subsequent removal of thrombin using a benzamidine-Sepharose® 6B column. The cleaved 6-His tag was separated from the integrase using a second Ni-Nta column. The integrase was further purified with a heparin-Sepharose® column and a gradient of NaCl (0.4 to 1 M) in 20 mM HEPES (pH 7.5), 400 mM NaCl, and 1 mM DTT buffer. The purified protein was dialyzed against 20 mM HEPES (pH 7.5), 800 mM NaCl, and 1 mM DTT and concentrated by stirred cell ultrafiltration (Millipore, Bedford, Mass.) or Ultra-free spin concentrators (Millipore, Bedford, Mass.) when required. […]

Row | SMILES | IC50
1 | O=C(NO)c1cc2c3ccccc3n(Cc3ccc(Cl)s3)c2cn1 [Compound 2, 9-[(5-Chlorothien-2-yl)methyl]-N-hydroxy-9H-β-carboline-3-carboxamide] | 494 nM
2 | O=C(NO)c1cc2c3ccccc3n(Cc3ccc(F)cc3)c2cn1 [Compound 1, 9-(4-Fluorobenzyl)-N-hydroxy-9H-β-carboline-3-carboxamide] | 234 nM
3 | O=C(NO)c1cc2c3ccccc3n(Cc3ccc(F)cc3F)c2cn1 [Compound 6, 9-(2,4-Difluorobenzyl)-N-hydroxy-9H-β-carboline-3-carboxamide] | 463 nM
4 | O=C(NO)c1cc2c3ccccc3n(Cc3cccc(Cl)c3F)c2cn1 [Compound 3, 9-(3-Chloro-2-fluorobenzyl)-N-hydroxy-9H-β-carboline-3-carboxamide] | 400 nM
5 | Nc1ccc2c(c1)c1cc(C(=O)NO)ncc1n2Cc1cccc(Cl)c1 [Compound 8, 6-Amino-9-(3-chlorobenzyl)-N-hydroxy-9H-β-carboline-3-carboxamide] | 713 nM
6 | CN(O)C(=O)c1cc2c3ccccc3n(Cc3ccc(F)cc3)c2cn1 [Compound 13, 9-(4-Fluorobenzyl)-N-hydroxy-N-methyl-9H-β-carboline-3-carboxamide] | 699 nM
7 | O=C(NO)c1cc2c3ccccc3n(Cc3c(F)ccc(Cl)c3F)c2cn1 [Compound 7, 9-(3-Chloro-2,6-difluorobenzyl)-N-hydroxy-9H-β-carboline-3-carboxamide] | 1390 nM
8 | O=C(NO)c1cc2c3ccccc3n(Cc3ccccc3)c2cn1 [Compound 4, 9-Benzyl-N-hydroxy-9H-β-carboline-3-carboxamide] | 281 nM
